Peptide text beside a SMILES is read from it. * marks the point of attachment. Benzoyl(4-Br) = O=C(c1ccc(Br)cc1)*; Myristoyl = CCCCCCCCCCCCCC(=O)*
Experiments:
MDA-MB-231-WT cells [1] = experiment: MTS cell viability assay (Example 7); type: cell-based; details: for reduced cell viability observed: 50-200 μM
Experimental: (§1) To assess the cytotoxic and cell viability effects of GIPC inhibitor peptides, an MTS assay was conducted in pancreatic cancer cells (AsPC1) and breast cancer cells (MDA-MB-231-WT) using CR1023 and CR1166, as well as control peptides (CR1162, CR1164, CR2055 and CR2059) in a dose dependent manner (50-200 μM).

EGFR [2] = experiment: Western blot of EGFR in AsPC1 cells; type: cell-based, human; details: 48 hours; 50, 100, 200 μM
Experimental: (§2) AsPC1, MDA231-WT cells were grown in a 100 mm tissue culture dish in RPMI medium containing serum, L-glutamine and antibiotics. At 60% confluency cells were treated with GIPC inhibitor peptides in a dose dependent and time dependent manner. Untreated and GIPC inhibitor peptide-treated AsPC1 and MDA231-WT cells were washed thrice with 10 ml of cold PBS, lysed with ice-cold RIPA buffer along with halt and PIC incubated on ice for 10 min, and centrifuged at 4° C. for 10 min. The expression of IGF-1R and EGFR protein was determined in untreated and peptides treated AsPC1 and MD231A cells by Western blot analysis according to standard protocols. Briefly, protein concentration in the cell lysates was measured using Bradford assay kit (Bio-rad). The proteins were loaded on a 10% SDS-PAGE gel for separation and transferred to a membrane. […]
(§3) Since GIPC association with IGF-1R is important for IGF-1R stability, the effects of CR1023 and CR1166 on the expression of both IGF-1R and EGFR were investigated. The levels of EGFR and IGF-1R in pancreatic cancer cells (AsPC1) and breast cancer cells (MDA-MB-231A-WT) were analyzed using Western blot analysis after treatment with GIPC inhibitor peptides or control peptides for 48 hours at different concentrations (50 μM, 100 μM and 200 μM) (FIG. 21, A and B). […]

IGF-1R [3] = experiment: Western blot of IGF-1R in MDA-MB-231A-WT cells; type: cell-based; details: 48 hours; 50, 100, 200 μM
Experimental: as §2, §3

AsPC1 cells [4] = experiment: Apoptosis assay (annexin/PI); type: cell-based, human; details: for reduction in live AsPC1 cells / apoptosis induced: within 48 h; for induction of apoptosis: 50-200 μM
Experimental: (§4) MDA231-WT and AsPC1 ells were seeded into 6-well plates at a density of 4×10^5/2 ml of RPMI medium per well and grown overnight. Next day cells were treated with GIPC inhibitor peptides in a time dependent (48 h-96 h) and dose dependent manner (50-200 μM). After treatment with definite time, cells were extensively washed with PBS and tested with the Annexin V-FITC Apoptosis Detection Kit (Biovision, Cat. No. #K101-100) per the manufacturer's instructions.

[5] = test system: AsPC1 cells expressing GFP/luciferase; experiment: Pancreatic tumor model, intratumoral injections; type: in vivo, female SCID mice; details: for pancreatic tumor growth over time compared to control peptides: intratumoral, alternate days, one month
Experimental: (§5) In vivo tumor model experiments using female SCID mice were performed to test the effectiveness of GIPC inhibitor peptides. The pancreatic tumor model was established by injecting 5×10^6 AsPC1 cells expressing GFP/luciferase resuspended in 50 μL of sterile PBS into the mouse right flank. Similarly, the breast tumor growth model was established in mice by injecting 2×10^6 MD-MBA-231-WT cells resuspended in 50 μL of sterile PBS into the mammary fat pad of the female SCID mice. When tumors volumes reached 50-100 mm^3, the GIPC inhibitor peptides and controls were intratumorally injected on alternate days over a period of one month. In order to monitor the pancreatic tumor burden, the mice were non-invasively imaged using the IVIS 200 Bioluminescence Imaging system (Xenon Corp.) before sacrificing. After bioluminescence imaging, the effect of the peptides on tumor growth (weight and volume) and EGFR and IGF-1R expression from tumors collected from different groups were examined. Tumors collected after sacrificing the SCID mice were measured by digital slide calipers using the (½ab^2) formula.

IGF-1R [6] = experiment: Western blot of IGF-1R in AsPC1 cells; type: cell-based, human; details: 48 hours; 50, 100, 200 μM
Experimental: as §2, §3

EGFR [7] = experiment: Western blot of EGFR in MDA-MB-231A-WT cells; type: cell-based; details: 48 hours; 50, 100, 200 μM
Experimental: as §2, §3

MDA-MB-231-WT cells [8] = experiment: Apoptosis assay (annexin/PI); type: cell-based; details: for apoptosis induced: within 48 h; for induction of apoptosis: 50-200 μM
Experimental: as §4

[9] = biological target: T1, co-localization of GIPC and IGF-1R (Homo sapiens, UniProt O14908); experiment: Duolink II co-localization of GIPC and IGF-1R in AsPC1 cells; type: cell-based
T1 construct: endogenous in cells; host or cells: AsPC1
T1 sequence (O14908 1-333): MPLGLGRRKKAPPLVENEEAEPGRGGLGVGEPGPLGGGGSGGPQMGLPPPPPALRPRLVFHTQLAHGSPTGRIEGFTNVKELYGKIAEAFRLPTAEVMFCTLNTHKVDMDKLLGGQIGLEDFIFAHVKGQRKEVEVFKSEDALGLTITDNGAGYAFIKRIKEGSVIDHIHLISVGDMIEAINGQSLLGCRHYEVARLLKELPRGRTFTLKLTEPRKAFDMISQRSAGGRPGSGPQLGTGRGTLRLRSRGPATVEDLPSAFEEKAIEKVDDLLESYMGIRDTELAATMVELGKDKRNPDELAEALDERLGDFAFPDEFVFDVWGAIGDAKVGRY
Experimental: Co-localization experiments were performed using a Duolink II Fluorescence kit to visualize the co-localization of GIPC and IGF-1R in control untreated AsPC1 cells (FIG. 23). Red fluorescence indicated the co-localization of GIPC and IGF-1R in AsPC1 cells.

AsPC1 cells [10] = experiment: MTS cell viability assay (Example 7); type: cell-based, human; details: for reduced cell viability observed: 50-200 μM
Experimental: as §1

[11] = biological target: T2, interaction between IGF-1R and GIPC (Homo sapiens, UniProt O14908); experiment: Immunoprecipitation for GIPC, immunoblot against IGF-IR in AsPC1 cells; type: cell-based; details: for interaction between IGF-1R and GIPC: IP with GIPC antibody (N-19); for protein levels of IGF-IR: in vitro model
T2 construct: endogenous in cells; host or cells: AsPC1
T2 sequence (O14908 1-333): T1 sequence (O14908 1-333)
Experimental: AsPC1 cells were treated and lysate was collected in RIPA buffer. After immunoprecipitation with a GIPC antibody (N-19), western blot analysis was performed.

MD-MBA-231-WT cells = experiment: Breast tumor growth model, intratumoral injections; type: in vivo, female SCID mice
Experimental: as §5

SMILES	reduced cell viability observed (MDA-MB-231-WT cells [1])	EGFR expression compared to control peptides (EGFR [2])	IGF-1R expression compared to control peptides (IGF-1R [3])	reduction in live AsPC1 cells (AsPC1 cells [4]; 50 μM) [%]	reduction in live AsPC1 cells (AsPC1 cells [4]; 200 μM) [%]	induction of apoptosis (AsPC1 cells [4])	pancreatic tumor growth over time compared to control peptides [5]	IGF-1R expression compared to control peptides (IGF-1R [6])	EGFR expression compared to control peptides (EGFR [7])	apoptosis induced (MDA-MB-231-WT cells [8]; 50 μM) [%]	apoptosis induced (MDA-MB-231-WT cells [8]; 200 μM) [%]	induction of apoptosis (MDA-MB-231-WT cells [8])	red fluorescence (co-localization of GIPC and IGF-1R) compared to control [9]	reduced cell viability observed (AsPC1 cells [10])	interaction between IGF-1R and GIPC [11]	protein levels of IGF-IR [11]	other results
CCCCCCCCCCCCCC(=O)N1CCC[C@H]1C(=O)N[C@@H](CO)C(=O)N[C@@H](CCC(N)=O)C(=O)N[C@@H](CO)C(=O)N[C@@H](CO)C(=O)N[C@@H](CO)C(=O)N[C@@H](CCC(=O)O)C(=O)N[C@@H](C)C(=O)O [CR1023, My-PSQSSSEA] (Myristoyl-PSQSSSEA-OH; C-terminus assumed)	Reduced cell viability	reduced	reduced	~78	~62	significant induction of apoptosis	significantly suppressed the pancreatic tumor growth	reduced	reduced	~30	~35	significant induction of apoptosis	reduced red fluorescence	Reduced cell viability	interfere with the interaction	reduced protein levels of IGF-IR significantly	–
CCCCCCCCCCCCCC(=O)N1CCC[C@H]1C(=O)N[C@@H](CO)C(=O)N[C@@H](CCC(N)=O)C(=O)N[C@@H](CO)C(=O)N[C@@H](CCCCNC(=O)c1ccc(Br)cc1)C(=O)N[C@@H](CO)C(=O)N[C@@H](CCCCNC(=O)c1ccc(Br)cc1)C(=O)N[C@@H](C)C(=O)O [CR1166, My-PSQSK(4-Br-ben)SK(4-Br-ben)A] (Myristoyl-PSQSK(Benzoyl(4-Br))SK(Benzoyl(4-Br))A-OH; C-terminus assumed)	Reduced cell viability	reduced	reduced	~53	~35	significant induction of apoptosis	significantly suppressed the pancreatic tumor growth	reduced	reduced	~54	~61	significant induction of apoptosis	reduced red fluorescence	Reduced cell viability	interfere with the interaction	reduced protein levels of IGF-IR significantly	cell viability reduced more compared to CR1023 (MDA-MB-231-WT cells [1]; at 50 μM, 100 μM, and 200 μM): 30-33%; apoptosis induced (AsPC1 cells [4]; 50 μM): ~47%; apoptosis induced (AsPC1 cells [4]; 200 μM): ~65%; EGFR expression in tumor compared to control CR2055 ([5]; pancreatic tumors): significant reduction; IGF-1R expression in tumor compared to control CR2055 ([5]; pancreatic tumors): significant reduction; tumor regression as compared to control DMSO-PBS-treated mice ([5]; pancreatic tumors): ~4.8 times; tumor regression as compared to mice treated with CR1023 ([5]; pancreatic tumors): ~2.3 times; tumor regression as compared to mice treated with CR2055 ([5]; pancreatic tumors): ~3.8 times; tumor regression as compared to mice treated with CR2059 ([5]; pancreatic tumors): ~3.9 times; breast tumor regression as compared to mice treated with CR1023 (MD-MBA-231-WT cells; CR1023 data not shown): ~1.4 times; IGF-1R expression in tumor compared to CR2059 (MD-MBA-231-WT cells; breast tumors): significant reduction; breast tumor growth over time compared to controls (MD-MBA-231-WT cells; intratumoral, alternate days): significantly suppressed breast tumor growth; breast tumor regression as compared to control DMSO-PBS-treated mice (MD-MBA-231-WT cells; mouse, in vivo): ~2.7 times; breast tumor regression as compared to mice treated with CR2055 (MD-MBA-231-WT cells; mouse, in vivo): ~2.1 times; breast tumor regression as compared to mice treated with CR2059 (MD-MBA-231-WT cells; mouse, in vivo): ~2.2 times; cell viability reduced more compared to CR1023 (AsPC1 cells [10]; 50 μM): ~50%; cell viability reduced more compared to CR1023 (AsPC1 cells [10]; 100 μM): ~45%; cell viability reduced more compared to CR1023 (AsPC1 cells [10]; 200 μM): ~35%

— US9163063B2, “Peptides and nanoparticles for therapeutic and diagnostic applications” (Trustees of Dartmouth College, priority 2009, dated 2015)
